According to US4879390A, “Delta-butyrolactams, thereof, processes for the preparation thereof and their medical use” (priority 1984, dated 1989):

Legend:
[1] = tested on: acetaminophen hepatotoxicity in mice; assay: Protective action against acetaminophen hepatotoxicity in mice; format: in vivo, male Kunming strain mice; details: 250 mg/kg × 3
Description: (§1) Male Kunming strain mice weighing 18-22 grams were used throughout the experiments. The compounds to be tested were suspended in 5% Tween 80 and given orally by gavage. The vehicle of 5% Tween 80 solution was administered to control mice via the same route. In in vitro experiments, the compounds were dissolved in dimethylformamide and added directly into the incubation mixture.
(§2) The parameters adopted for hepatotoxicity included serum transaminase (SGPT), liver triglycerides, and pathological examination of liver tissues. The liver lesions were scored mainly by the extent of inflammation and necrosis and graded from 0 to 4.
The experiment of anti-acetaminophen hepatotoxicity was performed in the following way. Mice were administered two doses (250 mg/kg) of Clausenamide on the first day followed by the same dose on the second day. A dose of 150 mg/kg of acetaminophen was injected ip 6 h after the last dose of the compound. SGPT was determined and liver tissues were examined 20 h after acetaminophen injection.

[2] = tested on: mice; assay: Acute toxicity test; format: in vivo; details: single oral dose of 3 grams/kg, 10 mice
Description: as §1

[3] = tested on: pentobarbital sleeping time; assay: Effect on barbiturates sleeping time in mice (pentobarbital); format: in vivo, male Kunming strain mice; details: 250 mg/kg; for Sleeping time (X ± SE): 10 per group, control 71 ± 7, P <0.01
Description: as §1
(§3) In another experiment, mice were given a dose of 250 mg/kg of Clausenamide. Sodium pentobarbital (50 mg/kg) was injected ip 1 and 24 h after administration of the compounds. The sleeping time was estimated by recording the interval of disappearance and recovery of righting reflex. […] This means that the prolongation of pentobarbital sleeping time by Clausenamide was due to the inhibition of liver drug metabolism enzyme.

[4] = tested on: CCl4 intoxicated mice; assay: Hepato-protective action: SGPT of CCl4 intoxicated mice; format: in vivo, male Kunming strain mice; details: two oral doses of 250 mg/kg
Description: as §1, §2
(§4) (a) Hepato-protective action

[5] = tested on: hypoxia tolerance (mouse); assay: Increase of hypoxia tolerance (mouse); format: in vivo, male mice; details: for surviving/total animals: 30 min before test, 3.5% oxygen, control 9/60
Description: Collectives of male mice (20 g body weight) are placed in a plastic box divided into two chambers (size of the box: 15×28×40 cm corresponding to a volume of 16.8 l per bos). 20 mice are placed in each chamber. The box is perfused with a gas mixture containing 3.5% oxygen and 96.5% nitrogen. The perfusion volume is 4 l/min. The test substance and vehicle are administered orally 30 min before the test.
About 7 min after onset of perfusion with the hypoxic mixture animals die. The experiment is stopped when in the left hand chamber (control collective) three animals only show signs of respiration. The box is opened and the number of animals of the treated group still alive is counted.
The difference between the survived animals in both groups is evaluated using the X^2 test according to Fisher and Yates (1963) (Thomann et al. 1975).

[6] = tested on: serum and liver transaminase (GPT); assay: Effect on serum and liver transaminase (GPT) levels of normal mice; format: in vivo, male Kunming strain mice
Description: as §1
Two groups of mice were administered the vehicle or 250 mg/kg of Clausenamide once daily for 7 consecutive days, respectively. The serum and liver GPT were determined 24 h after the last dose administration.

[7] = Solubility; format: physicochemical
[8] = tested on: thioacetamide hepatotoxicity in mice; assay: Protective action against thioacetamide hepatotoxicity in mice; format: in vivo, male Kunming strain mice; details: thioacetamide 50 mg/kg
Description: as §1, §2, §4
In the experiment of thioacetamide hepatotoxicity, mice were treated according to the procedure of the first experiment except that thioacetamide (50 mg/kg) was used instead of CCl4.

[9] = tested on: benzo(a)pyrene hydroxylase (AHH); assay: Induction of hepatic microsomal enzymes: benzo(a)pyrene hydroxylase (AHH); format: in vivo, male Kunming strain mice
Description: as §1
(§5) The liver microsomal cytochrome P-450 plays a key role in the detoxification of xenobiotics. Mice were administered 250 mg/kg of Clausenamide once daily for 3 days. The control mice received the vehicle. The mice were killed after fasting overnight. Liver microsomes were prepared and microsomal monooxygenases were determined.

[10] = Induction of hepatic microsomal cytochrome P-450: liver weight and microsomal protein; format: in vivo, male Kunming strain mice; details: 250 mg/kg/day × 3; 6 per group; control 4.0 ± 0.2
Description: as §1, §5

[11] = tested on: Aminopyrine demethylase; assay: Induction of hepatic microsomal enzymes: aminopyrine demethylase; format: in vivo, male Kunming strain mice
Description: as §1, §5

[12] = tested on: hepatic microsomal cytochrome P-450; assay: Induction of hepatic microsomal cytochrome P-450; format: in vivo, male Kunming strain mice
Description: as §1, §5

[13] = tested on: Cytochrome b5; assay: Induction of hepatic microsomal enzymes: cytochrome b5; format: in vivo, male Kunming strain mice
Description: as §1, §5

[14] = tested on: CCl4 hepatotoxicity in mice; assay: Therapeutic effect on CCl4 hepatotoxicity in mice; format: in vivo, male Kunming strain mice
Description: as §1, §2
In another experiment, mice were first injected […] of 0.15% CCl4 in vegetable oil every other day for 3 doses. Treatment of the mice with Clausenamide (250 mg/kg daily) started from the second to fifth day after the first injection of CCl4. The determination of SGPT and pathological examination of liver tissues were performed on day 7 of the experiment.

[15] = tested on: CCl4 hepatotoxicity in mice; assay: Protective action of Clausenamide against CCl4 hepatotoxicity in mice; format: in vivo, male Kunming strain mice; details: for Liver lipids (X ± SE): control 21.0 ± 4.2; for SGPT (X ± SE): nine mice per group, control 3016 ± 23
Description: as §1, §2, §4
The procedure of experiment of anti-CCl4 hepatotoxicity was the same as described above. The dosages of the active compound used were 125 and 250 mg/kg. […] Liver lipids were not decreased.

[16] = tested on: barbital sleeping time; assay: Effect on barbiturates sleeping time in mice (barbital); format: in vivo, male Kunming strain mice
Description: as §1
as §3, with “Sodium pentobarbital (50 mg/kg) was injected ip 1 and 24 h after administration of the compounds.” left out

[17] = tested on: NADPH-cytochrome c reductase; assay: Induction of hepatic microsomal enzymes: NADPH-cytochrome c reductase; format: in vivo, male Kunming strain mice
Description: as §1, §5

[18] = tested on: retrograde amnesia (rat); assay: Retrograde amnesia (rat) under hypoxic conditions; format: in vivo, male rats; details: time to enter dark compartment 24 h after hypoxia
Description: The apparatus (39 cm long, 21 cm high, and 21 cm wide) consists of two compartments, one made of translucent plastic (29 cm long) and the other one painted black (10 cm long). It has a bottom of spaced metal grids which are connected to a stimulating device delivering 1.6 mA for 20 s.
Both compartments are connected via a door which can be closed.
Male rats (100-120 g body weight) will be placed individually in the large compartment and allowed to explore both compartments for 3 min.
Thereafter the animals are placed in the small (dark) compartment, the connecting door is closed and the foot shock is delivered. After that the animals are put in an air-tight cage which is perfused by a gas mixture containing 3.8% oxygen and 96.2 % nitrogen.
24 hours later the rats are placed again in the bright compartment. The observation time is 3 min.
One experiment is performed in three groups of 15 animals each:
Group A: control group, not exposed to hypoxia
Group B: control group, receiving hypoxia after first training
Group C: treated animals, receiving hypoxia after first training.
Evaluation: the times the animals need to enter the dark compartment are measured in seconds.
The time difference between the two control groups is considered to be 100% (A-B=100%).
The time difference between the control group B and the treated group C is calculated in percent (C-B=X%). X is considered to be a measure for the potency of the antiamnestic effect of the substance tested.

[19] = 250 mg/kg once daily for 3 days

CN1C(=O)[C@@H](O)[C@H](c2ccccc2)[C@@H]1[C@@H](O)c1ccccc1 (relative stereo) [Clausenamide]
Hepatic injuries, in words ([1]; acetaminophen 150 mg/kg ip): markedly decreased SGPT levels and hepatic injuries | SGPT levels, in words ([1]; acetaminophen 150 mg/kg ip): markedly decreased SGPT levels | Liver lipids ([1]; acetaminophen 150 mg/kg ip, control 79 ± 13): 82 ± 17 mg/g | SGPT ([1]; acetaminophen 150 mg/kg ip, nine mice per group, control 2778 ± 270, P < 0.01): 697 ± 163 unit % | Liver inflammation (grade) ([1]; acetaminophen, graded from 0 to 4, control 0.5): 0.1 grade | Liver necrosis (grade) ([1]; acetaminophen, graded from 0 to 4, control 1.4): 0 grade | Death in 7 days [2]: did not cause death | Sleeping time (X ± SE) ([3]; 1 h before pentobarbital 50 mg/kg): 152 ± 17 min | Pentobarbital sleeping time, in words ([3]; 1 h prior to pentobarbital): prolonged markedly | Pentobarbital sleeping time, in words ([3]; 24 h before pentobarbital): shortened significantly | Sleeping time (X ± SE) ([3]; 24 h before pentobarbital 50 mg/kg): 46 ± 6 min | SGPT (X ± SE) ([4]; CCl4 intoxicated mice, 8 h apart, 9 per group, control 1678 ± 261): 617 ± 323 unit % | SGPT levels of CCl4-intoxicated mice, in words [4]: significantly decreased SGPT levels | effect ([5]; 10 mg/kg p.o.): 19.6% | surviving/total animals ([5]; 10 mg/kg p.o.): 19/60 | effect ([5]; 30 mg/kg p.o.): 41.1% | surviving/total animals ([5]; 30 mg/kg p.o.): 31/60 | effect ([5]; 100 mg/kg p.o.): 58.8% | increase in the survival rate ([5]; 100 mg/kg p.o.): 59% | surviving/total animals ([5]; 100 mg/kg p.o.): 40/60 | hypoxia tolerance, in words ([5]; 10 to 100 mg/kg p.o.): significantly increased | SGPT level of normal mice, in words ([6]; 250 mg/kg once daily for 7 days): slightly higher than that of the control, but the difference was not significant | SGPT (X ± SE) ([6]; normal mice, 250 mg/kg/day × 7, eight mice per group, control 217 ± 7.5, P > 0.05): 252 ± 22.1 unit % | LGPT (X ± SE) ([6]; normal mice, 250 mg/kg/day × 7, eight mice per group, control 260 ± 11.6, P > 0.05): 292 ± 8.0 unit/100 mg | solubility in common organic solvents ([7]; CHCl3, CH2Cl2, ether, ethyl acetate, etc.): only slightly soluble | solubility in hot methanol, DMSO and DMF ([7]; hot methanol, DMSO and DMF): soluble | Liver lipids (X ± SE) ([8]; 250 mg/kg × 2, control 61 ± 11.7): 39 ± 3.9 mg/g | SGPT (X ± SE) ([8]; 250 mg/kg × 2, nine mice per group, control 1696 ± 231, P < 0.01): 718 ± 229 unit % | SGPT levels, in words [8]: markedly lowered the SGPT levels | Benzo(a)pyrene hydroxylase activity, in words [9, 19]: increased significantly | AHH ([9]; 250 mg/kg/day × 3, 6 per group, control 2.6 ± 0.4): 5.7 ± 0.76 nmol/min/mg protein | Liver weight [10]: 5.4 ± 0.2 g % | Aminopyrine demethylase, in words [11, 19]: increased significantly | Aminopyrine demethylase ([11]; 250 mg/kg/day × 3, 6 per group, control 81 ± 6.3): 126 ± 5.2 nmol HCHO/min protein | Hepatic cytochrome P-450, in words [12, 19]: increased significantly | Cytochrome P-450 ([12]; 250 mg/kg/day × 3, 6 per group, control 0.87 ± 0.07): 1.14 ± 0.07 nmol/mg protein | Action on hepatic microsomal cytochrome P-450 (concluded from sleeping time and enzyme data) ([12]; 250 mg/kg, biphasic): inhibition and followed by induction | Cytochrome b5, in words [13, 19]: increased significantly | Cytochrome b5 ([13]; 250 mg/kg/day × 3, 6 per group, control 0.15 ± 0.01): 0.19 ± 0.01 nmol/mg protein | SGPT lowering, in words ([14]; 250 mg/kg daily, second to fifth day after first CCl4 injection): significant SGPT lowering action | Liver lesions, in words ([14]; 250 mg/kg daily, second to fifth day after first CCl4 injection, day 7): no effect on liver lesions | SGPT (X ± SE) ([14]; 250 mg/kg/day × 4, started after first CCl4 injection, 8 mice, control 2695 ± 110, P <0.01): 1718 ± 224 unit % | Liver lipids (X ± SE) ([15]; 125 mg/kg × 2, CCl4): 21.6 ± 4.4 mg/g liver | SGPT (X ± SE) ([15]; 125 mg/kg × 2, CCl4, P < 0.05): 2365 ± 245 unit % | Liver lipids (X ± SE) ([15]; 250 mg/kg × 2, CCl4): 13.4 ± 3.0 mg/g liver | Liver lesions: Inflammation grade ([15]; 250 mg/kg × 2, CCl4, graded from 0 to 4, control 1.70): 0.38 grade | Liver lesions: Necrosis grade ([15]; 250 mg/kg × 2, CCl4, graded from 0 to 4, control 2.33): 1.33 grade | SGPT (X ± SE) ([15]; 250 mg/kg × 2, CCl4, p < 0.01): 1900 ± 257 unit % | Liver injuries such as inflammation and necrosis, in words ([15]; 250 mg/kg, CCl4): less severe than those of the control | Elevation of SGPT induced by CCl4, in words ([15]; 125 and 250 mg/kg): significantly depressed the elevation of SGPT | Liver lipids, in words ([15]; CCl4): not decreased | Sleeping time (X ± SE) ([16]; 250 mg/kg, 1 h before barbital 200 mg/kg, 10 per group, control 197 ± 27, P >0.05): 172 ± 13 min | Barbital sleeping time, in words ([16]; prior administration of the compound): did not affect sleeping time | NADPH-cytochrome c reductase, in words [17, 19]: increased significantly | NADPH-cytochrome c reductase ([17]; 250 mg/kg/day × 3, 6 per group, control 103 ± 2.5): 117 ± 2.5 nmol cytochrome c reduced/min/ | X (antiamnestic effect, C-B as percent of A-B) ([18]; 3 mg/kg p.o.): 47% | X (antiamnestic effect, C-B as percent of A-B) ([18]; 10 mg/kg p.o.): 65% | X (antiamnestic effect, C-B as percent of A-B) ([18]; 30 mg/kg p.o.): 100%
